# Experimental data published in patent publication US11524077B2, “Orally active, cell-penetrating homing peptide and methods using same” (Vascular BioSciences, priority 2012, dated 2022).
# Bridge positions count the residues as written; N and C are the ends. Ends that are not written are not given here. Peptide text beside a SMILES is read from it.
# Legend:
# [1] = system: trypsin; assay: trypsin digest time-course experiment with mass spectrometry analysis; type: in vitro ADME; details: trypsin in Krebbs buffer, 24° C., 0-120 minutes
# From the text: In an effort to further understand the oral availability of cyclic CAR peptide, we tested the stability of cyclic CAR (cCAR) and linear CAR in the presence of trypsin, a serine protease that is one of the primary enzymes found in the digestive system of vertebrates. Trypsin selectively cleaves peptide chains at the carboxyl side of the basic residues lysine and arginine, yielding a potentially wide variety of peptide fragments.
# We conducted a trypsin proteolysis time course experiment, and tested cCAR and linear CAR (cyclic CAR that lacks the disulfide bond between adjacent cysteine residues and has a linear structure) in the presence of a trypsin solution.
# For the digest time course experiment, the cCAR peptide sample was prepared by dissolving cCAR in Krebbs buffer (670 μM CAR), and the trypsin digest solution was prepared by adding trypsin to Krebbs buffer as well (0.1 μg/μL Trypsin). 15 μL CAR (670 μM) was added to 40 μL trypsin solution (0.1 μg/μL) and 75 μL Krebbs buffer. The reaction was allowed to proceed at 24° C. for different time periods of time. The reactions were quenched with 20 μL formic acid (500 μM) at different time points to stop trypsin from degrading any further peptide substrate. These steps were performed repeatedly for multiple time points (t=0, 5, 10, 15, 20, 30, 60, 120 minutes) for both cCAR and linear CAR. The different time point samples were desalted and analyzed using mass spectrometry.
# [2] = system: severe occlusive PAH rats (SU5416/Hx/Nx-exposed); assay: hemodynamic effect of oral CAR 3 hours prior to i.v. imatinib in severe occlusive rat model of PAH; type: in vivo
# Procedure: Anesthetized severe occlusive PAH rats were then catheterized in the right jugular vein for measurement of right ventricular systolic pressure (RVSP), the right carotid artery and advanced into the aorta for the measurement of systemic pressure (SAP) and the left jugular vein for drug administration.
# Values are means±SE. N=3 without CAR and N=5 with CAR *p<0.05 vs. without CAR.
# Recently we sought to explore the hemodynamic effect of orally administering 20 mg/kg of CAR 3 hours prior to i.v. administration of imatinib at doses of 5 mg/kg and 20 mg/kg in a severe occlusive rat model of PAH. Rats were first orally syringe fed a mixture of 20 mg/Kg CAR in a 10% sucrose solution 3 hours prior to anesthetization and assessment of the hemodynamic effects of i.v. administration of 5 mg/kg imatinib followed 20 minutes later by i.v. administration of 20 mg/kg of imatinib (FIG. 1).
# [3] = system: SU/Hx/Nx rats with severe occlusive model PAH; assay: sublingual CAR +/- imatinib or sildenafil in rats with severe occlusive model PAH; type: in vivo, rat; details: CAR 3 mg/kg sublingual; i.v. bolus imatinib or sildenafil; RVSP and SAP
# Procedure: (A) a pulmonary artery with medial thickening, (B) a small pulmonary artery with neointimal occlusion, (C) spleen, (D) liver, and (E) kidney from a SU/Hx/Nx rat. […] Effects of CAR (3 mg/kg, sublingual) on intravenous (bolus) imatinib (F)- and sildenafil (G)- induced reductions in right ventricular systolic pressure (RVSP) and systemic arterial pressure (SAP) in SU/Hx/Nx rats. Values are means±SE. N=4-6. *p<0.05 with (solid line) vs. without (dashed line) CAR.
# CAR was administered sublingually at a dosing of 3 mg/kg. The administration was performed in six rats with severe occlusive model PAH via dropper sublingually. The administration was +/− imatinib or +/− sildenafil.
# [4] = system: pulmonary hypertensive arteries; details: monocrotaline (MCT) and SU5416/Hypoxia/Normoxia severe occlusive rat models of PAH; cited from earlier work
# [5] = co-administered with the Rho-kinase inhibitor fasudil; cited from earlier work
# [6] = imatinib i.v. 20 mg/kg, 3 hours after oral CAR 20 mg/kg, severe occlusive PAH rats
resistance to trypsin digestion relative to cCAR [1],resistance to trypsin digestion relative to linear CAR [1],Molecule,outcome of trypsin digest (stability in words) [1],"adjuvant activity after oral administration ([2]; 3 hours after oral CAR 20 mg/kg in 10% sucrose, i.v. imatinib)","change in systemic arterial pressure (SAP) [2, 6]","reduction in right ventricular systolic pressure (RVSP) [2, 6]",effect on action of co-administered drugs [3],homing to pulmonary hypertensive arteries [4],vasodilation when co-administered with fasudil [5]
approximately 10 fold,approximately 100 fold,"C[C@H](NC(=O)[C@@H]1CSSC[C@H](NC(=O)[C@H](CC(=O)O)NC(=O)[C@H](CCCCN)NC(=O)[C@H](CC(N)=O)NC(=O)[C@H](CCCCN)NC(=O)[C@@H](N)CO)C(=O)N1)C(=O)N[C@@H](CCCNC(=N)N)C(=O)O [SEQ ID NO: 5, SKNKDCCAR] (H-SKNKDCCAR-OH; disulfide 6-7; N-terminus and C-terminus assumed)",largely resistant to further degradation by trypsin,–,–,–,–,–,–
–,–,C[C@H](NC(=O)[C@@H](N)CS)C(=O)N[C@@H](CCCNC(=N)N)C(=O)N[C@@H](CO)C(=O)N[C@@H](CCCCN)C(=O)N[C@@H](CC(N)=O)C(=O)N[C@@H](CCCCN)C(=O)N[C@@H](CC(=O)O)C(=O)N[C@@H](CS)C(=O)O [linear CAR] (H-CARSKNKDC-OH; N-terminus and C-terminus assumed),quickly digested by trypsin into its constituent amino acids,–,–,–,–,–,–
–,–,CARSKNKDC (disulfide 1-9 (inferred)) [cell-penetrating homing peptide],yielded one predominant product that persisted over the time course of the experiment,displayed pulmonary selective adjuvant activity,no change,18%,can facilitate the selective action of co-administered drugs at the site of the disease,shown to home to pulmonary hypertensive arteries,acute pulmonary selective vasodilation
